Assay results taken from US5747493A, “Dopamine re-uptake inhibitor” (Pola Chemical Industries, Inc., priority 1993, dated 1998).
Where a name gives a salt, the structure may show the parent alone.

Tests used:
[^3 H]-DA re-uptake = inhibition of [^3 H]-DA re-uptake in corpus striatum homogenate; assay type: biochemical, Sprague-Dawley rats; conditions: for amount of DA re-uptake: 2 min
Experimental: Investigation as to inhibition of [^3 H]-DA re-uptake
Corpus striatum samples of Sprague-Dawley rats (SD rats) were used to investigate the inhibition of [^3 H]-DA re-uptake.
More specifically, after an SD rat (aged 8 weeks, male) was decapitated, its corpus striatum was taken out while keeping on ice. A Krebs-Henseleit buffer in an amount ten times of the corpus striatum was added thereto to homogenize the resultant mixture by means of a Teflon homogenizer, thereby obtaining a homogenate. To this homogenate, were added nialamide as a monoamine oxidase inhibitor, ascorbic acid as an antioxidant and a test agent to preincubate the resulting mixture at 37° C. for 5 minutes. […] After the reaction mixture was filtered by means of a cell harvester in which a filter had been set, the filter was washed twice with physiological saline. The washed filter was placed in a vial, and 10 ml of Aquazol-2 were added to leave the filter to stand overnight. Thereafter, the radioactivity of the sample was measured by a liquid scintillation counter.
Compound 1 according to the present invention was used as a test agent. The test agent was prepared into a 10^-2 M solution in dimethyl sulfoxide, and the solution was diluted with a Krebs-Henseleit buffer before its use. With the concentrations of the test substances, 11 points were selected within a range of from 10^-10 M to 10^-5 M to plot the concentration versus the amount of DA re-uptake. From this plot, an IC50 value was determined.

Wistar rats (male) = test: quantity of spontaneous movement; assay type: in vivo; conditions: intraperitoneal, 3 hours; for Number of times of rising: control 2; for Number of times of traversing: control 20
Excerpt: Determination of quantity of spontaneous movement
Wistar rats (male) aged 7 weeks were used to confirm the effect of Compound 1 on spontaneous movement. […] The number of times of traversing sections of a floor and the number of times of rising were used as indices of the quantity of movement. The test agent was used in doses of from 0.1 mmol/kg down to 0.01 mmol/kg. Besides, physiological saline alone was used as a control.

## OC(CNc1ccccc1)CN1CCN(CCCC(c2ccc(F)cc2)c2ccc(F)cc2)CC1 (stereo not drawn) [Compound 1, 1-[4,4-Bis(4-fluorophenyl)-butyl]-4-(2-hydroxy-3-phenyl-aminopropyl)piperazinedihydrochloride]
[^3 H]-DA re-uptake; SD rat corpus striatum homogenate, 37° C., 2 minutes reaction
  IC50: 6.79 nM
[^3 H]-DA re-uptake; concentration of test substance -log (mol) 6, 1 µM
  amount of DA re-uptake: 0%
[^3 H]-DA re-uptake; concentration of test substance -log (mol) 6.5, 0.316 µM
  amount of DA re-uptake: 0%
[^3 H]-DA re-uptake; concentration of test substance -log (mol) 7, 0.1 µM
  amount of DA re-uptake: 2%
[^3 H]-DA re-uptake; concentration of test substance -log (mol) 8, 0.01 µM
  amount of DA re-uptake: 38%
[^3 H]-DA re-uptake; concentration of test substance -log (mol) 9, 0.001 µM
  amount of DA re-uptake: 80%
[^3 H]-DA re-uptake; concentration of test substance -log (mol) 10, 0.0001 µM
  amount of DA re-uptake: 92%
[^3 H]-DA re-uptake; conclusion from IC50 and Table 3
  inhibition of DA re-uptake (in words): potent activities of inhibiting DA re-uptake
Wistar rats (male); 0.01 mmol/kg
  Number of times of rising: 69 times
  Number of times of traversing: 253 times
Wistar rats (male); 0.03 mmol/kg
  Number of times of rising: 156 times
  Number of times of traversing: 267 times
Wistar rats (male); 0.1 mmol/kg
  Number of times of rising: 121 times
  Number of times of traversing: 287 times
Wistar rats (male); 0.01 to 0.1 mmol/kg, hydrochloride
  quantity of spontaneous movement (in words): enhances the quantity of the spontaneous movement to a marked extent
